# Measurements: patent EP0341300B1, “STIMULATION OF STEM CELL GROWTH BY THE BRYOSTATINS” (priority 1987, dated 1989)
# Entries after “also recorded” stand apart in the source; their conditions may differ.
# Tests used:
# [1] = tested on: light-density, adherence-depleted normal human bone marrow cells; test: Granulocyte-macrophage colony formation (CFU-GM) in agar culture; assay type: cell-based
# Description: For determining effective concentrations of bryostatins for granulocyte and macrophage colony formation, light density, adherence-depleted human bone marrow cells can be obtained. The cells can be suspended in a suitable medium, such as supplemented McCoy's 5A medium containing 0.3% agar and plated in 35 mm petri dishes as described in Pike et al, Journal of Cell Physiology, Vol. 76, pp. 77-83, 1970. For the bryostatins which have been tested and found to be effective, i.e., 1, 3, 8 and 9, maximum stimulatory concentrations are between about 10⁻⁷M and 10⁻¹⁰M.
# Granulocyte-macrophage colony-forming unit (CFU-GM) colonies were enumerated from light-density, adherence-depleted normal human bone marrow cells. Cells were suspended in supplemented McCoy's 5A medium containing 0.3% agar and plated in 35-mm Petri dishes as described in Pike et al, J. Cell Physiol., Vol. 76, pp. 77-83, 1970. Colonies were enumerated following incubation of bone marrow with cells with rHGM-CSF at 50 ng/ml (Genetics Institute) or bryostatin 1 (●) bryostatin 3(o), bryostatin 8(♢), bryostatin 9(+), or bryostatin 13 (▲) at the concentrations indicated. After 14 days of culture at 37°C in a humidified atmosphere containing 7.5% CO₂, colonies of greater or equal to 50 cells were scored. Representative results from one of several experiments are reported as the mean colony number from quadruplicate samples. SEM is within 10% of the mean number.
# [2] = tested on: P388 lymphocytic leukemia line; settings: reported by others (Pettit et al); test system not named; cited from earlier work
# [3] = tested on: Normal human peripheral blood neutrophils; test: Neutrophil chemiluminescence with luminol; assay type: cell-based; settings: 15 min incubation, then 10 uM luminol; rhGM-CSF at 50 ng/ml
# Description: To determine the effective amount of bryostatin for neutrophil activation, normal human peripheral blood neutrophil cells can be purified on a density gradient such as a Ficoll gradient. Other immune regulatory cells, such as T-lymphocytes and macrophages can be isolated by standard and known techniques. The neutrophils can be suspended in Dulbecco's phosphate-buffered saline supplemented with calcium and magnesium. One way to monitor neutrophil activation is to observe chemiluminescence. The neutrophils can be incubated for about fifteen minutes with the bryostatin. Then luminol (5-amino-2-3-dihydro-1, 4-phthalazinedione) can be added to a concentration of about 10 uM. Chemiluminescence can be measured in a luminometer as described in Allen et al, Biochemistry and Biophysics Research Communications, Vol. 69, pp. […], 1976.
# Normal human peripheral blood neutrophils were highly purified on a double Ficoll density gradient and suspended in Dulbecco's phosphate-buffered saline supplemented with Ca²⁺ and Mg²⁺. First, substances to be tested were incubated with the neutrophils for 15 min. At this point 10 uM luminol (5-amino-2, 3-dihydro-1, 4-phtyalazinedione) was added to each sample. The generation of chemiluminescence was measured in a luminometer at 1.25 min intervals for up to 20 min.
# [4] = tested on: normal human bone marrow; test: Clone transfer assay (growth of transferred clones in secondary plates); assay type: cell-based; settings: primary culture 10 nM bryostatin 1 for 4 days; secondary plates bryostatin 1 10 nM or rhGM-CSF 50 ng/ml, 10 further days
# Experimental: Assays were performed essentially as described in Metcalf et al, Blood, Vol. 67, pp. 37-45, 1986. Briefly, cultures of normal human bone marrow were initiated in medium containing 10 nM bryostatin 1. Following 4 days of growth, clones of 4-8 cells were carefully removed using a glass pipette to avoid contamination by surrounding cells and transferred to secondary plates containing either rhGM-CSF (50 ng/ml) or bryostatin 1 (10 nM) as the source of CSF). After an additional 10 days of culture, the number of clones that had proliferated to form a colony of 40 cells or more was determined. Further growth was not observed in colonies transferred to plates containing no added CSF. (See Figure 3.)
# Each symbol (●) represents a colony. Its height in each column is proportional to the number of cells in that colony. The data directly above sections G of the column represent colonies composed entirely of granulocytic cells. The data above sections GM in the column represent colonies composed of both granulocytic and monocytic cells. No colonies in secondary plates were detected that were composed of macrophage-monocyte cells only. The numerator in the fraction at the top of each column represents the number of colonies that developed in the secondary plate, and the denominator represents the total number of clones transferred.
# [5] = tested on: K562 target cells; test: Activated neutrophil cytotoxicity, 51Cr release; assay type: cell-based, human; settings: for % specific lysis, 7.5 / % specific lysis, column 15 / % specific lysis, column 30: Bryostatin alone (no neutrophils)
# Experimental: Alternatively, neutrophil activation can be assayed using a cytoxicity assay. Purified neutrophils can be incubated at a density of about 3x10⁶ cells per ml with various concentrations of bryostatin. The cells can be washed and added to radiolabelled target cells. K562 tumor cells and ⁵¹ Cr-label can be used to measure cytoxicity. The target cells are preincubated with the radiolabelled substance to effect uptake of the radiolabel. The target cells can be mixed with the neutrophils at various effector to target cell ratios, such as between about 50:1 and 5:1, Release of label from the target cells can be measured either by assaying the supernatant or the cells after centrifugation. Of course, other methods known in the art, such as using other assays of immune regulatory cell cytotoxicity can be used. Bryostatin 1 has activity toward neutrophils at about 10⁻¹⁰ to 10⁻⁷M, with a maximum activation effect on neutrophil cytotoxicity of K562 target cells at a concentration of about 10⁻⁷M.
# Furthermore, activation of neutrophil cytotoxicity, as measured by killing of ⁵¹Cr-labeled K562 tumor target cells was also sitmulated by bryostatin 1 (Table 1). Neutrophils were purified as described above. Neutrophils were incubated at a density of 3 x 10⁶ cells per ml first with various concentrations of bryostatin 1 (0.1 uM to 0.1 nM), rhGM-CSF (50 ng/ml), or in medium alone for 2 hr. Following two washes, the cells were added to the ⁵¹Cr-labeled K562 target cells at effector/target cell ratios of 30:1, 15:1, or 7.5:1 as indicated. Control plates containing ⁵¹Cr-labeled K562 cells and either bryostatin or medium alone were evaluated to determine the spontaneous release of isotope. The plates containing the cells were centrifuged at 250 x g for 2 min and then incubated for 3 hrs at 37°C. One hundred microliters of the supernatant was harvested from each well, and the amount of radioactivity present was determined in a gamma scintillation counter. The maximum release of ⁵¹Cr was determined by assaying supernatant obtained from wells in which the cells were completely lysed with 6 M HCl.
# Assessment of neutrophil cytotoxicity induced by bryostatin 1. K562 cells were labeled with […] and adjusted to a concentration of 10³ cells per ml in RPMI 1640 medium. Activated neutrophil cytotoxicity was determined. The results are expressed as the percentage of specific isotope released at the indicated effector/target cell ratio calculated as follows: % specific lysis = [(mean cpm of sample - mean cpm spontaneously released)/(mean cpm maximal -mean cpm spontaneously released)] x 100 [formula] . [formula] Maximum induced cpm released as 7364 ± 149. The maximum mean % specific lysis from triplicate determinations from a representative experiment is shown.
# [6] = tested on: multi-potential hematopoietic progenitors; test: Continuous 7-day subcutaneous infusion by osmotic micropump in mice; assay type: in vivo, BDF₁ mice
# Experimental: A dose-response stimulatory effect on multi-potential hematopoietic progenitors was noted. The administration of 144 ug/kg/d (max. dose) increased CFU-S, CFU-GM and BFU-E compared to control animals infused with vehicle alone. CFU-S from spleen cells of treated animals were increased 2-fold (19 vs. 39 colonies per 10⁶ cells injected), while bone marrow CFU-S was not altered. Likewise, CFU-GM colonies from spleen cells were increased 3.6-fold (52 vs. 188 per 10⁶ cells injected), and increased 2-fold (73 vs. 150 per 10⁵ nuc. cells) in bone marrow.
# [7] = tested on: early BFU-E and late CFU-E human erythroid progenitors; test: Erythroid progenitor assay, plasma-clot method with erythropoietin; assay type: cell-based; settings: plasma clots, optimal erythropoietin
# Description: Amounts of bryostatin which are effective for stimulating hematopoiesis or neutrophil and other immune regulatory cell activation, can be determined using any of the assays known in the art. For example, early and late erythrocyte progenitors can be enumerated using the plasma clot method described in McLeod et al, Blood, Vol. 44, p. 517, 1974. Stimulation of such erythrocyte progenitors requires the presence of erythropoietin.
# Assays for both early (BFU-E) and late (CFU-E) progenitors were enumerated as described in McLeod et al, Blood, Vol. 44, p. 517 (1974) using the plasma-clot method and optimal concentrations of erythropoietin. Bryostatin 1 stimulated both early BFU-E and late CFU-E human erythroid progenitors growth in plasma clots. The maximal stimulatory concentration was between 1 and 10 pM, with an inhibitory effect noted at concentrations above 1 nM.
# [8] = neutrophils plus 10^-7M, 0.1 µM
# [9] = neutrophils plus 10^-8M, 0.01 µM
# [10] = neutrophils plus 10^-9M, 0.001 µM
# [11] = neutrophils plus 10^-10M, 0.0001 µM
molecule,measurement,setting,value
"CCC/C=C/C=C/C(=O)O[C@H]1[C@H]2C=C3C[C@H]([C@@H](C)O)OC(=O)C[C@H](O)C[C@@H]4C[C@H](OC(C)=O)C(C)(C)[C@](O)(C[C@@H]5C/C(=C\C(=O)OC)C[C@H](/C=C/C(C)(C)[C@]1(OC(=O)C2)O3)O5)O4 [Bryostatin 3, bryostatin 3]",granulocyte-macrophage colony stimulating activity (in words),[1]; 14 days of culture,clearly less potent than bryostatin 1 or 8
"CCCC(=O)O[C@H]1/C(=C/C(=O)OC)C[C@H]2C[C@H]([C@@H](C)O)OC(=O)C[C@H](O)C[C@@H]3C[C@H](OC(C)=O)C(C)(C)[C@](O)(C[C@@H]4C/C(=C/C(=O)OC)C[C@H](/C=C/C(C)(C)[C@]1(O)O2)O4)O3 [Bryostatin 9, bryostatin 9]",granulocyte-macrophage colony stimulating activity (in words),[1]; 14 days of culture,much less potent stimulator; also recorded: weaker stimulator; also recorded: only a weak stimulator
"CCCC(=O)O[C@H]1C[C@H]2C[C@@H](O)CC(=O)O[C@@H]([C@H](C)O)C[C@@H]3C/C(=C\C(=O)OC)C[C@@](O)(O3)C(C)(C)/C=C/[C@H]3C/C(=C\C(=O)OC)C[C@@H](C[C@](O)(O2)C1(C)C)O3 [Bryostatin 13, bryostatin 13]",antineoplastic activity,[2],retain potent antineoplastic activity
same,activation of neutrophil chemiluminescence,[3],not
same,granulocyte-macrophage colony stimulating activity (in words),[1]; 14 days of culture,totally inactive; also recorded: completely inactive
bryostatin 1,growth of transferred clones on secondary plates,[4],produced full-size colonies
same,activation of neutrophil chemiluminescence,[3],potent activator
same,concentration of maximum activation effect on neutrophil cytotoxicity of K562 target cells,[5],about 10⁻⁷ M
same,"% specific lysis, 7.5","[5]; 10^-7M, 0.1 µM",-0.6%
same,"% specific lysis, column 15","[5]; 10^-7M, 0.1 µM",0.3%
same,"% specific lysis, column 30","[5]; 10^-7M, 0.1 µM",1.5%
same,"% specific lysis, 7.5","[5]; 10^-8M, 0.01 µM",0.3%
same,"% specific lysis, column 15","[5]; 10^-8M, 0.01 µM",1.0%
same,"% specific lysis, column 30","[5]; 10^-8M, 0.01 µM",0.9%
same,% specific lysis at effector/target ratio 7.5,[5]; [8],7.8%
same,% specific lysis at effector/target ratio 15,[5]; [8],18.1%
same,% specific lysis at effector/target ratio 7.5,[5]; [9],0%
same,% specific lysis at effector/target ratio 15,[5]; [9],2.4%
same,% specific lysis at effector/target ratio 30,[5]; [9],8.4%
same,% specific lysis at effector/target ratio 7.5,[5]; [10],0%
same,% specific lysis at effector/target ratio 15,[5]; [10],1.8%
same,% specific lysis at effector/target ratio 30,[5]; [10],0.9%
same,% specific lysis at effector/target ratio 7.5,[5]; [11],0.9%
same,% specific lysis at effector/target ratio 15,[5]; [11],1.0%
same,% specific lysis at effector/target ratio 30,[5]; [11],-0.8%
same,CFU-GM colonies from spleen cells,"[6]; 144 ug/kg/d, 7 days",188 per 10⁶ cells injected
same,CFU-GM colonies in bone marrow,"[6]; 144 ug/kg/d, 7 days",150 per 10⁵ nuc. cells
same,CFU-S from spleen cells,"[6]; 144 ug/kg/d, 7 days",39 colonies per 10⁶ cells injected
same,Erythroid BFU-E colonies from spleen cells,"[6]; 144 ug/kg/d, 7 days",58 per 10⁶ cells
same,bone marrow BFU-E progenitors,"[6]; 144 ug/kg/d, 7 days",no change
same,bone marrow CFU-S,"[6]; 144 ug/kg/d, 7 days",not altered
same,increase of CFU-GM colonies from spleen cells vs. vehicle control,"[6]; 144 ug/kg/d, 7 days",3.6 fold
same,increase of CFU-GM colonies in bone marrow vs. vehicle control,"[6]; 144 ug/kg/d, 7 days",2 fold
same,increase of CFU-S from spleen cells vs. vehicle control,"[6]; 144 ug/kg/d, 7 days",2 fold
same,increase of erythroid BFU-E colonies from spleen cells vs. vehicle control,"[6]; 144 ug/kg/d, 7 days",2 fold
same,"differential peripheral white blood cell, hemocrit, bone marrow cellularity or spleen weights",[6]; 7-day infusion,not accompanied by a significant change
same,major organ toxic effects,"[6]; infused for 7 days, any of the doses employed",no major organ toxic effects
same,concentrations with an inhibitory effect on erythroid progenitors,[7],above 1 nM
same,colony morphology,[1]; 7 and 14 days of culture,primarily mixed granulocyte-macrophage and pure granulocyte colonies
same,lowest concentration at which colony stimulating activity was observed,[1]; 14 days of culture,10 pM
same,maximal effective concentration for stimulation of CFU-GM,"[1]; 14 days of culture, colonies of >= 50 cells scored",1 to 10 nM
bryostatin 8,lowest concentration at which colony stimulating activity was observed,[1]; 14 days of culture,10 pM
